Laboratory results reported in ChEMBL document CHEMBL1201862, “PubChem BioAssay data set” (2004).
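Results reflect a 48-hour exposure of cells in 96-well plates to compound at five concentrations. Here, GI50 denotes the concentration required for 50% inhibition of growth.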 Active and inactive are the calls of the source. Rule as the data show it: active = GI50 up to about 1.1 µM and inactive = higher.

Columns and labels:
Assay in all cases: NCI-60 cell line screen, 48 h
MDA-N = test system: MDA-N
T47D = test system: T47D
DMS-114 = test system: DMS-114
DMS-273 = test system: DMS-273
M19-MEL = test system: M19-MEL
HOP-18 = test system: HOP-18
SNB-78 = test system: SNB-78
XF498 = test system: XF498

SMILES	GI50 (MDA-N)	GI50 (T47D)	also measured
COc1ccc(/C=N/NC(=O)c2ccc(O)c(CN(C)C)c2)cc1	> 100 µM (inactive)	> 100 µM (inactive)	
OC(c1nc2ccccc2s1)(C(F)(F)F)C(F)(F)F	> 100 µM (inactive)	> 100 µM (inactive)	
O=C1/C(=C/c2cccc([N+](=O)[O-])c2)CCCc2ccccc21	9.33 µM (inactive)		
ClC1=NN=C(c2c[nH]c3ccccc23)CC1NCc1ccccc1 (centres undefined)	> 100 µM (inactive)	> 100 µM (inactive)	
Cc1cc(O)nc(NNC(C#N)c2cccc(O)c2)n1 (centres undefined)			GI50 (DMS-114): > 100 µM (inactive); GI50 (DMS-273): > 100 µM (inactive); GI50 (M19-MEL): > 100 µM (inactive); GI50 (HOP-18): 86.7 µM (inactive); GI50 (SNB-78): > 100 µM (inactive)
O=C1C(Cl)C(c2cc3cc(Br)ccc3nc2Cl)N1c1c(Cl)cccc1Cl (centres undefined)	9.68 µM (inactive)	11.6 µM (inactive)	
O=C1CC(/C=C/c2ccco2)=C(O)C1=O	12.3 µM (inactive)	14.2 µM (inactive)	
O=C(c1cccc(OCc2ccccc2)c1OCc1ccccc1)N1CCSC1=S	27.9 µM (inactive)	5.66 µM (inactive)	
Cc1ccc2c(c1C)CC1(Cc3c(ccc4c3CCC4)C1=O)C2=O (centres undefined)	> 100 µM (inactive)	> 100 µM (inactive)	
COC(=O)c1ccc(C)cc1C1CN=NC12Cc1c(C)cccc1C2=O (centres undefined)	37.5 µM (inactive)	23.7 µM (inactive)	
CN(CC(=O)O)c1ncc2c(n1)-c1ccccc1SC2	> 100 µM (inactive)		
C1CSCC2(COC2)CS1	> 100 µM (inactive)		
O=C(N/N=C(/c1ccccc1)C(F)(F)F)c1ccncc1	> 100 µM (inactive)	> 100 µM (inactive)	
CN1N=C(c2ccncc2)OC1c1ccc(C(F)(F)F)cc1 (centres undefined)	> 100 µM (inactive)	0.495 µM (active)	
Oc1cccc(-c2ccc3c4c2O[C@H]2c5[nH]c6ccccc6c5C[C@@]5(O)[C@@H](C3)N(CC3CC3)CC[C@]425)c1	1.67 µM (inactive)	2.07 µM (inactive)	
Nc1cc(Cl)cc2cc(Cl)cnc12	> 100 µM (inactive)	26.4 µM (inactive)	
C=C1C(O)CC[C@]2(C)C1C1OC(C)(C)O[C@]13CC(=O)C(C)=C([C@H]1OC(C)(C)OC12)C3(C)C (some centres undefined)		47.9 µM (inactive)	
c1ccc(-c2nnc(-c3ccccn3)c3c2C[C@@H]2C[C@@H]4Cc5c(-c6ccccn6)nnc(-c6ccccn6)c5[C@@H]4[C@H]32)nc1	46.6 µM (inactive)	38.6 µM (inactive)	
CSc1ccc(-c2cc(-c3nc4ccccc4[nH]3)nc3[nH]c(-c4nc5ccccc5[nH]4)cc(=O)c23)cc1		95.1 µM (inactive)	
Cn1c(=O)c2c(no[n+]2[O-])n(C)c1=O	22.4 µM (inactive)	> 100 µM (inactive)	

SMILES	GI50 (MDA-N)	GI50 (T47D)	also measured
CS/C(=N\c1ccccc1)N(c1ccccc1)c1nc(=[N+](C)C)ss1.[O-][Cl+3]([O-])([O-])[O-]			GI50 (DMS-114): 0.0486 µM (active); GI50 (DMS-273): 0.166 µM (active); GI50 (M19-MEL): 0.0877 µM (active); GI50 (SNB-78): 5.06 µM (inactive)
Cc1cc(C)c2c(n1)S(=O)(=O)N(CCCN1CCN(c3cccc(C(F)(F)F)c3)CC1)C(C(=O)c1ccc(Cl)cc1)=C2O	3.15 µM (inactive)	3.98 µM (inactive)	
Cc1ccc2c(c1CCCC(C)(C)O)C(=O)C(O)=C(C(C)C)C2=O			GI50 (DMS-114): 39.1 µM (inactive); GI50 (DMS-273): 95.5 µM (inactive); GI50 (M19-MEL): 96.6 µM (inactive); GI50 (HOP-18): > 100 µM (inactive)
O=C(c1ccc(O)cc1O)C1C(c2ccc(O)cc2)OC(c2ccc(O)cc2)C1C(=O)c1ccc(O)cc1O (centres undefined)			GI50 (XF498): 15.5 µM (inactive); GI50 (DMS-273): 16 µM (inactive); GI50 (M19-MEL): 19.6 µM (inactive); GI50 (SNB-78): 19.1 µM (inactive)
CCCOP(=O)(OCCC)OC(C(F)(F)F)C(F)(F)F	> 100 µM (inactive)	> 100 µM (inactive)	
Clc1ccc2c(Cl)nc(-c3ccccc3)nc2c1			GI50 (XF498): 3.88 µM (inactive); GI50 (DMS-114): 18.6 µM (inactive); GI50 (DMS-273): 36.7 µM (inactive); GI50 (M19-MEL): 47.1 µM (inactive); GI50 (SNB-78): 11.4 µM (inactive)
Cc1cccc(C2NC(=O)c3ccccc3N2)c1 (centres undefined)	0.543 µM (active)	> 100 µM (inactive)	
N#Cc1c(C#N)c(SSc2c(C#N)c(C#N)c(N)n2-c2ccc(F)cc2)n(-c2ccc(F)cc2)c1N	3.67 µM (inactive)	2.7 µM (inactive)	
CC(=O)NC1C(OCc2ccccc2)OC(CO)C(O)C1OCC(=O)NC(C)C(=O)NC(CCC(=O)NCCCCCNc1c2ccccc2nc2cccc([N+](=O)[O-])c12)C(N)=O (centres undefined)	< 0.01 µM (active)		
CCCCn1c(-c2ccc([N+](=O)[O-])cc2)cs/c1=N/N=C1\C(=O)Nc2ccc(Br)cc21	16.2 µM (inactive)	7.11 µM (inactive)	
COc1cc(C(O)CCBr)c(OC)cc1C (centres undefined)	2.79 µM (inactive)	> 72.1 µM (inactive)	
COc1ccc(/N=C2/SC(=N/N=c3\sc4ccccc4n3C)S/C2=N/c2ccc(OC)cc2)cc1	> 100 µM (inactive)	23.3 µM (inactive)	
CCOC(=O)NNC(=O)NCCCCNC(=O)NNC(=O)OCC	> 100 µM (inactive)	> 100 µM (inactive)	
CC1(C)CC(C2=NCCO2)CC(C)(C)N1	> 100 µM (inactive)	> 100 µM (inactive)	
CN1Cc2cc(O)c(O)cc2C(O)C1 (centres undefined)	55.2 µM (inactive)	> 100 µM (inactive)	
COc1ccc(/C(Cl)=C(\CN(C)C)c2ccc(OC)c(OC)c2)cc1OC.[B]			GI50 (DMS-273): 2.34 µM (inactive); GI50 (HOP-18): > 100 µM (inactive); GI50 (SNB-78): 10.1 µM (inactive)
O=c1n(-c2ccccc2)c(=O)n2n1C1C=CC2CCCCCC1		> 100 µM (inactive)	
CCC1(O)CC(CCN(Cc2ccccc2)C(=O)OCc2ccccc2)C(OCc2ccccc2)C1O (centres undefined)	26.8 µM (inactive)	12.2 µM (inactive)	
C=C(NC(=O)C(=C)NC(=O)c1csc(C2=NC3c4csc(n4)C4NC(=O)c5csc(n5)C(C(C)(O)C(C)O)NC(=O)C5CSC(=N5)/C(=C/C)NC(=O)C(C(C)O)NC(=O)c5csc(n5)C3(CC2)NC(=O)C(C)NC(=O)C(=C)NC(=O)C(=C)NC(=O)C(C(C)C)NC2C=Cc3c(C(C)O)cc(nc3C2O)C(=O)OC4C)n1)C(N)=O (centres undefined)	1.56 µM (inactive)	2.4 µM (inactive)	
